For 26 compounds, inhibition, IC50 and melting point results are on record in patent US20010044445A1, “AZOLE INHIBITORS OF CYTOKINE PRODUCTION” (priority 1999, published 2001).

The test system of data set [1] is Human peripheral blood mononuclear cells. The data set is described as follows: Human Concanavalin-A Proliferation Assay (Con HU Assay). Format: cell-based. The note with it: Homo sapiens, PBMC, concanavalin-A stimulated human PBMC; for inhibition at 10 µM / inhibition at 1 µM / inhibition at 100 µM: 72 h, 3 days, read-out: % Inhibition of proliferation (at concentrations of 1,10, or 100 μm); for inhibition at 10 µM: concentration 10 μm (in parentheses in the cell); for pIC50: tritiated thymidine; for inhibition at 1 µM: concentration 1 μm (in parentheses in the cell); for inhibition at 100 µM: concentration 100 μm (in parentheses in the cell). The method, boiled down: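 Histopaque-isolated human PBMC (50,000/well) were pre-incubated 15 min with compounds, then stimulated with concanavalin-A at 2.5 μg/ml final for 3 days at 37 °C, 5% CO2. Proliferation measured by 6 h pulse with 0.5 μCi/well [3H]thymidine and beta counting.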

pIC50: −log10 of the molar value.

One may read the pIC50 as the IC50 on a negative log10 scale, so that one unit is a factor of ten. Low values mean a large IC50, high ones a small IC50. Broadly, the melting point is the temperature, or range, at which the solid turns liquid. As to `O=C(Nc1ccc(-n2nc(C(F)(F)F)cc2C(F)(F)F)cc1)c1ccc(Cl)nc1` [Example 249, N-[4-[3,5-bis(trifluoromethyl)-1H-pyrazol-1-yl]phenyl]-6-chloro-3-pyridinecarboxamide], the melting point lay within 192 to 194 °C. Further, in data set [1], the inhibition at 10 µM came out at 100% and the negative-log IC50 (pIC50) is 6.74.
As to `Cc1ccoc1C(=O)Nc1ccc(-n2nc(C(F)(F)F)cc2C(F)(F)F)cc1` [Example 252, N-[4-[3,5-bis(trifluoromethyl)-1H-pyrazol-1-yl]phenyl]-3-methyl-2-furancarboxamide], the melting point was 119 to 120 °C. In data set [1], the inhibition at 1 µM was 36%.
For the compound `O=C(Nc1ccc(-n2nc(C(F)(F)F)cc2C(F)(F)F)cc1)c1ccc(Cl)s1` [Example 253, N-[4-[3,5-bis(trifluoromethyl)-1H-pyrazol-1-yl]phenyl]-5-chloro-2-thiophenecarboxamide], the melting point was in the range of 182 to 184 °C. For the same compound, in data set [1], the inhibition at 10 µM was 94% and the pIC50 was 6.35.
In turn, `O=C1CCC(C(=O)Nc2ccc(-n3nc(C(F)(F)F)cc3C(F)(F)F)cc2)O1` (stereo not drawn) [Example 254, N-[4-[3,5-bis(trifluoromethyl)-1H-pyrazol-1-yl]phenyl]tetrahydro-5-oxo-2-furancarboxamide] came in with a melting point of 172 to 173 °C. The inhibition at 1 µM in data set [1] was found to be 9%.
Consider `O=C(Nc1ccc(-n2nc(C(F)(F)F)cc2C(F)(F)F)cc1)c1csc([N+](=O)[O-])c1` [Example 257, N-[4-[3,5-bis(trifluoromethyl)-1H-pyrazol-1-yl]phenyl]-5-nitro-3-thiophenecarboxamide], for which the melting point lay within 164 to 165 °C. Further, in data set [1], the inhibition at 10 µM worked out at 100% and the pIC50 is 6.41.
For the compound `CC(C)(C)OC(=O)N1CSCC1C(=O)Nc1ccc(-n2nc(C(F)(F)F)cc2C(F)(F)F)cc1` (stereo not drawn) [Example 258, 1,1-Dimethylethyl 4-[[[4-[3,5-bis(trifluoromethyl)-1H-pyrazol-1-yl]phenyl]amino]carbonyl]-3-thiazolidinecarboxylate], the melting point lay in the range of 82 to 84 °C. The inhibition at 1 µM in data set [1] worked out at 16%.
The matching figures for `COc1cc(C(=O)Nc2ccc(-n3nc(C(F)(F)F)cc3C(F)(F)F)cc2)cs1` [Example 259, N-[4-[3,5-bis(trifluoromethyl)-1H-pyrazol-1-yl]phenyl]-5-methoxy-3-thiophenecarboxamide]: 213 to 214 °C and 5%.
`O=C(Nc1ccc(-n2nc(C(F)(F)F)cc2C(F)(F)F)nc1)c1ccccc1Cl` [Example 260, N-[2-[3,5-bis(trifluoromethyl)-1H-pyrazol-1-yl]-5-pyridinyl]-2-chlorobenzamide] showed a melting point of 156 to 159 °C. Further, in data set [1], the inhibition at 10 µM came out at 96% and the negative-log IC50 (pIC50) is 6.43.
`N#Cc1cccc(C(=O)Nc2ccc(-n3nc(C(F)(F)F)cc3C(F)(F)F)nc2)c1` [Example 261, N-[2-[3,5-bis(trifluoromethyl)-1H-pyrazol-1-yl]-5-pyridinyl]-3-cyanobenzamide] returned a melting point of 206 to 208 °C. Moreover, the inhibition at 1 µM in data set [1] was determined as 37%.
Compound `O=C(Nc1ccc(-n2nc(C(F)(F)F)cc2C(F)(F)F)nc1)c1cc(F)c(F)cc1Cl` [Example 262, N-[2-[3,5-bis(trifluoromethyl)-1H-pyrazol-1-yl]-5-pyridinyl]-2-chloro-4,5-difluorobenzamide] yielded a melting point of 113 to 116 °C. In data set [1], the inhibition at 10 µM was determined as 100% and the pIC50 was 6.38.
As for `Cn1cc(C(=O)Nc2ccc(-n3nc(C(F)(F)F)cc3C(F)(F)F)cc2)cn1` [Example 265, N-[4-[3,5-bis(trifluoromethyl)-1H-pyrazol-1-yl]phenyl]-1-methyl-1H-pyrazole-4-carboxamide], the melting point is 211 to 212 °C. In addition, in data set [1], the inhibition at 10 µM turned out to be 90% and the negative-log IC50 (pIC50) was 5.42.
Take `COc1c(C(=O)Nc2ccc(-n3nc(C(F)(F)F)cc3C(F)(F)F)cc2)csc1Cl` [Example 267, N-[4-[3,5-bis(trifluoromethyl)-1H-pyrazol-1-yl]phenyl]-5-chloro-4-methoxy-3-thiophenecarboxamide]: the melting point lay in the range of 119 to 120 °C. Moreover, the inhibition at 1 µM in data set [1] was 38%.
As to `O=C(Nc1ccc(-n2nc(C(F)(F)F)cc2C(F)(F)F)cc1)c1cnc(Cl)c(Cl)c1` [Example 268, N-[4-[3,5-bis(trifluoromethyl)-1H-pyrazol-1-yl]phenyl]-5,6-dichloro-3-pyridinecarboxamide], the melting point lay within 175 to 177 °C. In addition, in data set [1], the inhibition at 10 µM worked out at 100% and the pIC50 is 6.46.
Compound `O=C(Nc1ccc(-n2nc(C(F)(F)F)cc2C(F)(F)F)cc1)c1cc(Cl)nc(Cl)c1` [Example 269, N-[4-[3,5-bis(trifluoromethyl)-1H-pyrazol-1-yl]phenyl]-2,6-dichloro-4-pyridinecarboxamide] came in with a melting point of 215 to 216 °C. In data set [1], the inhibition at 10 µM is 99% and the pIC50 is 6.41.
With `O=C(Nc1ccc(-n2nc(C(F)(F)F)cc2C(F)(F)F)c(C(F)(F)F)c1)c1ccc(Cl)cc1` [Example 271, N-[4-[3,5-bis(trifluoromethyl)-1H-pyrazol-1-yl]-3-(trifluoromethyl)phenyl]-4-chlorobenzamide], the melting point lay within 65 to 67 °C. Moreover, the inhibition at 1 µM in data set [1] was 14%.
For `O=C(Nc1ccc(-n2nc(C(F)(F)F)cc2C(F)(F)F)cc1F)c1ccc(F)cc1F` [Example 272, N-[4-[3,5-bis(trifluoromethyl)-1H-pyrazol-1-yl]-2-fluorophenyl]-2,4-difluorobenzamide], the melting point lay in the range of 66 to 67 °C. Besides, in data set [1], the inhibition at 1 µM was determined as 10%.
`O=C(Nc1ccc(-n2nc(C(F)(F)F)cc2C(F)(F)F)cc1-n1nc(C(F)(F)F)cc1C(F)(F)F)c1ccc(F)cc1F` [Example 273, N-[2,4-bis[3,5-bis(trifluoromethyl)-1H-pyrazol-1-yl]phenyl]-2,4-difluorobenzamide] gave a melting point of 114 to 115 °C. In addition, the inhibition at 1 µM in data set [1] stood at 12%.
The matching figures for `Cc1noc(C)c1C(=O)Nc1ccc(-n2nc(C(F)(F)F)cc2C(F)(F)F)c(C(F)(F)F)c1` [Example 275, N-[4-[3,5-bis(trifluoromethyl)-1H-pyrazol-1-yl]-3-(trifluoromethyl)phenyl]-3,5-dimethyl-4-isoxazolecarboxamide]: 61 to 63 °C and 8%.
`Cc1nnsc1C(=O)Nc1ccc(-n2nc(C(F)(F)F)cc2C(F)(F)F)c(C(F)(F)F)c1` [Example 276, N-[4-[3,5-bis(trifluoromethyl)-1H-pyrazol-1-yl]-3-(trifluoromethyl)phenyl]-4-methyl-1,2,3-thiadiazole-5-carboxamide]: the melting point was 134 to 136 °C. Besides, in data set [1], the inhibition at 1 µM came to 16%.
Consider `Cc1noc(C)c1C(=O)Nc1ccc(-n2nc(C(F)(F)F)cc2C(F)(F)F)c(Cl)c1` [Example 277, N-[4-[3,5-bis(trifluoromethyl)-1H-pyrazol-1-yl]-3-chlorophenyl]-3,5-dimethyl-4-isoxazolecarboxamide], for which the melting point lay within 64 to 65 °C. In addition, in data set [1], the inhibition at 100 µM amounted to 99% and the pIC50 is 5.97.
Compound `Cc1noc(C)c1C(=O)Nc1ccc(-n2nc(C(F)(F)F)cc2C(F)(F)F)cc1C(F)(F)F` [Example 278, N-[4-[3,5-bis(trifluoromethyl)-1H-pyrazol-1-yl]-2-(trifluoromethyl)phenyl]-3,5-dimethyl-4-isoxazolecarboxamide] registered a melting point of 145 to 146 °C. Also, the inhibition at 1 µM in data set [1] was 4%.
As for `Cc1cc(-n2nc(C(F)(F)F)cc2C(F)(F)F)ccc1NC(=O)c1snnc1C` [Example 279, N-[4-[3,5-bis(trifluoromethyl)-1H-pyrazol-1-yl]-2-methylphenyl]-4-methyl-1,2,3-thiadiazole-5-carboxamide], the melting point was in the range of 196 to 197 °C. The inhibition at 1 µM in data set [1] stood at 6%.
`COc1cc(-n2nc(C(F)(F)F)cc2C(F)(F)F)ccc1NC(=O)c1snnc1C` [Example 280, N-[4-[3,5-bis(trifluoromethyl)-1H-pyrazol-1-yl]-2-methoxyphenyl]-4-methyl-1,2,3-thiadiazole-5-carboxamide] returned a melting point of 119 to 121 °C. Moreover, the inhibition at 10 µM in data set [1] came to 16%.
In the case of `Cc1nnsc1C(=O)Nc1ccc(-n2nc(C(F)(F)F)cc2C)cc1` [Example 282, 4-methyl-N-[4-[5-methyl-3-(trifluoromethyl)-1H-pyrazol-1-yl]phenyl]-1,2,3-thiadiazole-5-carboxamide], the melting point was in the range of 51 to 53 °C. In addition, in data set [1], the inhibition at 100 µM came out at 100% and the pIC50 was 6.61.
The matching figures for `Cc1noc(C)c1C(=O)Nc1ccc(-n2nc(C(F)(F)F)cc2C)cc1` [Example 283, 3,5-Dimethyl-N-[4-[5-methyl-3-(trifluoromethyl)-1H-pyrazol-1-yl]phenyl]-4-isoxazolecarboxamide]: 180 to 181 °C, 99% and 5.98.
On to `Cc1noc(C)c1C(=O)Nc1ccc(-n2ccc(C(F)(F)F)n2)cc1` [Example 287, 3,5-dimethyl-N-[4-[3-(trifluoromethyl)-1H-pyrazol-1-yl)phenyl]-4-isoxazolecarboxamide], for which the melting point lay in the range of 177 to 178 °C. Further, the inhibition at 1 µM in data set [1] was found to be 24%.
